Test results published in patent US10562891B2, “Quinazolinones as PARP14 inhibitors” (Ribon Therapeutics Inc., priority 2017, dated 2020).
pIC50: −log10 of the molar value.

Experiments:
[1] = target: catalytic domain of human PARP14 (Homo sapiens (Human), UniProt Q460N5); test: Enzymatic assay for inhibition of PARP14 (DELFIA, auto-modification with biotin-NAD); format: biochemical; conditions: auto-modification of PARP14 by biotin-NAD, 50 nM PARP14, 3 μM biotin-NAD
Summary of the method: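 DELFIA auto-modification read-out: europium-streptavidin bound to biotin-NAD incorporated onto nickel-captured His-TEV PARP14 catalytic domain. Compound preincubated 30 min, then 50 nM enzyme with 3 μM biotin-NAD reacted 3 h, all at 25 °C, pH 8, then NAD quench. Percent inhibition normalized to rucaparib/DMSO wells, fitted (4- or 3-parameter) for IC50.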

LL/2 cells = test: Inhibition of tumor growth and survival in the LL/2 murine syngeneic model; format: in vivo, female C57BL/6 mice; conditions: LL/2 subcutaneous right flank, 500 mg/kg PO BID*21 days, treatment group versus vehicle group, study terminated D21
Excerpt: For the LL/2 study (FIGS. 4A-4C), female C57BL/6 mice were inoculated subcutaneously in the right flank with 5×10^5 LL/2 cells (ATCC, CRL-1642™) for tumor development. Five days after tumor inoculation, 16 mice with tumor size ranging from 37-72 mm^3 (average tumor size 51 mm^3) were selected and assigned into 2 groups using stratified randomization with 8 mice in each group based upon their tumor volumes. The treatments were started from the next day post randomization (defined as randomization day DO) and were treated with vehicle (0.5% methylcellulose +0.2% Tween 80), or the compound of Example 235 (500 mg/kg PO BID*21 days). The tumor sizes were measured three times per week during the treatment. The entire study was terminated on D21.
Statistical significance, calculated using 2way ANOVA multiple comparisons in which each treatment group was compared to vehicle control, is indicated by an asterisk. Statistics were performed on groups with less than 20% animal loss (D20 for 4T1, D17 for LL/2). Survival benefit was determined for the LL/2 study (FIG. 4B). Individual mice were euthanized once they reached the termination endpoint (TV>2000 mm3). The time from treatment initiation to termination was deemed as its survival time and plotted in a Kaplan-Meier survival curve format. Mice remaining at study end date of 21 days were euthanized at day 21 after treatment initiation. […]

4T1 cells = test: Inhibition of tumor growth in the 4T1 murine syngeneic model; format: in vivo, female BALB/c mice; conditions: 4T1 orthotopic in mammary fat pad, 500 mg/kg PO BID*21 days, treatment group versus vehicle group, study terminated D20
Excerpt: FIGS. 3A and 4A illustrate that a PARP14 inhibitor (Example 235) reduces tumor growth in the murine syngeneic models (A) 4T1 and (B) LL/2. For the 4T1 study (FIGS. 3A and 3B), female BALB/c mice were inoculated orthotopically in the mammary fat pad with 1×10^5 4T1 cells (ATCC, CRL-2539™) for tumor development. Seven days after tumor inoculation, 16 mice with tumor size ranging from 41-78 mm^3 (average tumor size 56 mm^3) were selected and assigned into 2 groups using stratified randomization with 8 mice in each group based upon their tumor volumes. The treatments were started from the next day post randomization (defined as randomization day DO) and were treated with vehicle (0.5% methylcellulose +0.2% Tween 80), or the compound of Example 235 (500 mg/kg PO BID*21 days). The tumor sizes were measured three times per week during the treatment. The entire study was terminated on D20.
Statistical significance, calculated using 2way ANOVA multiple comparisons in which each treatment group was compared to vehicle control, is indicated by an asterisk. Statistics were performed on groups with less than 20% animal loss (D20 for 4T1, D17 for LL/2). Survival benefit was determined for the LL/2 study (FIG. 4B). Individual mice were euthanized once they reached the termination endpoint (TV>2000 mm3). […]

catalytic domain of human PARP14, sequence (Q460N5 1611-1801): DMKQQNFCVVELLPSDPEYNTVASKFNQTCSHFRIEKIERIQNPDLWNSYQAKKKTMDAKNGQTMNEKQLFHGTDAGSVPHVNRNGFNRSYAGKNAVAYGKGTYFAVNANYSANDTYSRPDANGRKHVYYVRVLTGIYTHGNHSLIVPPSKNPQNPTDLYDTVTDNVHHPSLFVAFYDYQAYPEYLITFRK

Work on `O=c1[nH]c(CS[C@H]2CC[C@H](O)CC2)nc2cc(OCC3CC3)cc(F)c12` [Example 235, 7-(Cyclopropylmethoxy)-5-fluoro-2-(((trans-4-hydroxycyclohexyl)thio)methyl)quinazolin-4(3H)-one] yielded a pIC50 [1] greater than 6.00, a Tumor growth inhibition (LL/2 cells) of 63% and a Tumor growth inhibition (4T1 cells) of 31%.
